Test [1] deals with T1, SARS-CoV-2 PLpro (nsp3 1564–1878) (Severe acute respiratory syndrome coronavirus 2, UniProt P0DTD1). Description: biochemical. The settings on record: low concentration screen, read-out: % of control remaining. Also on record: FRET-quenched peptide (Pro3) cleavage by PLpro, 10 min pre-incubation, slope over 20 min, normalised to no-compound control.
For test [2], the target named is T1, SARS-CoV-2 PLpro (nsp3 1564–1878). Kind of test: biochemical. More on the design: FRET-quenched peptide (Pro3) cleavage by PLpro, 10 min pre-incubation, slope over 20 min, normalised to no-compound control. The settings on record: high concentration screen, read-out: % of control remaining.

Structures can show the parent of a compound that is named as a salt. Where two headings read alike, the source gives them in different places.

In the case of `COc1nc(C)nc(Cl)c1NC1=NCCN1` [Moxonidine hydrochloride], in test [1] (Well no.=920), the remaining activity at 1.25 µM stood at 100%. Also, the remaining activity at 3.75 µM in test [2] (Well no.=920) was 102%.

Take `COc1nc(C)nc(Cl)c1NC1=NCCN1` [Moxonidine]: the remaining activity at 1.25 µM in test [1] (Well no.=4724) amounted to 98.7%; in test [1] (Well no.=7423), 106%. Further, the remaining activity at 3.75 µM in test [2] (Well no.=4724) is 92.3%.

As for `Cc1ccccc1C(=O)Nc1ccc(C(=O)N2CCCC(N(C)C)c3ccccc32)cc1` (stereo not shown) [Mozavaptan], the remaining activity at 1.25 µM in test [1] (Well no.=4936) was found to be 101%; in test [1] (Well no.=6515), 93.2%. Besides, the remaining activity at 3.75 µM amounted to 101% in test [2] (Well no.=4936) and 96.3% in test [2] (Well no.=6515).

With `OC[C@H]1O[C@@H](Oc2cc(O)cc(/C=C/c3ccc(O[C@@H]4O[C@H](CO)[C@@H](O)[C@H](O)[C@H]4O)cc3O)c2)[C@H](O)[C@@H](O)[C@@H]1O` [Mulberroside A], the remaining activity at 1.25 µM in test [1] (Well no.=6340) was 93%. Moreover, the remaining activity at 3.75 µM in test [2] (Well no.=6340) turned out to be 90.9%.

On to `NCc1cc(O)no1` [Muscimol hydrobromide], for which the remaining activity at 1.25 µM in test [1] (Well no.=556) was determined as 95.9%. In addition, the remaining activity at 3.75 µM in test [2] (Well no.=556) was 94.1%.

For the compound `CCCCC(C#N)(Cn1cncn1)c1ccc(Cl)cc1` (stereo not shown) [Myclobutanil], the remaining activity at 1.25 µM in test [1] (Well no.=2001) stood at 105%. Besides, the remaining activity at 3.75 µM in test [2] (Well no.=2001) was determined as 102%.

Regarding `COc1c(C)c2c(c(O)c1C/C=C(\C)CCC(=O)OCCN1CCOCC1)C(=O)OC2` [Mycophenolate mofetil], the remaining activity at 1.25 µM in test [1] (Well no.=1923) came out at 103%. Besides, in test [2] (Well no.=1923), the remaining activity at 3.75 µM is 103%.

For `COc1c(C)c2c(c(O)c1C/C=C(\C)CCC(=O)O)C(=O)OC2` [Mycophenolic Acid], the remaining activity at 1.25 µM in test [1] (Well no.=1553) came out at 100%; in test [1] (Well no.=3415), 96.4%. Further, the remaining activity at 3.75 µM was 99.9% in test [2] (Well no.=1553) and 98.7% in test [2] (Well no.=3415).

`CCOC(=O)c1cnn(-c2ccccc2)c1NC(=O)c1cc2nc(-c3ccco3)cc(C(F)(F)Cl)n2n1` [Mycro 3]: in test [1] (Well no.=7158), the remaining activity at 1.25 µM was 96%. Moreover, in test [2] (Well no.=7158), the remaining activity at 3.75 µM worked out at 94.4%.

Regarding `O=c1c(O)c(-c2cc(O)c(O)c(O)c2)oc2cc(O)cc(O)c12` [Myricetin], the remaining activity at 1.25 µM in test [1] (Well no.=838) stood at 101%; in test [1] (Well no.=3324) it was 103%; in test [1] (Well no.=6244), 96.2%. Moreover, the remaining activity at 3.75 µM came out at 102% in test [2] (Well no.=838), 108% in test [2] (Well no.=3324) and 96.9% in test [2] (Well no.=6244).

As for `C[C@@H]1O[C@@H](Oc2c(-c3cc(O)c(O)c(O)c3)oc3cc(O)cc(O)c3c2=O)[C@H](O)[C@H](O)[C@H]1O` [Myricitrin], the remaining activity at 1.25 µM in test [1] (Well no.=3343) came out at 95.5%. Further, in test [2] (Well no.=3343), the remaining activity at 3.75 µM stood at 97.9%.

Turning to `CCCCCCC(=O)CCCCCC/C=C/C[C@@H](O)[C@H](O)[C@@](N)(CO)C(=O)O` [Myriocin], the remaining activity at 1.25 µM in test [1] (Well no.=3417) was determined as 99.6%. Besides, in test [2] (Well no.=3417), the remaining activity at 3.75 µM is 101%.

As for `CCCCCCCCCCCCCC(=O)O` [Myristic acid], the remaining activity at 1.25 µM in test [1] (Well no.=6979) is 101%. For the same compound, the remaining activity at 3.75 µM in test [2] (Well no.=6979) was 102%.

Regarding `C=CCc1cc(OC)c2c(c1)OCO2` [Myristicin], the remaining activity at 1.25 µM in test [1] (Well no.=3473) stood at 99%. Further, the remaining activity at 3.75 µM in test [2] (Well no.=3473) came out at 99.9%.

In the case of `CN(C)c1nc2c(ncn2[C@@H]2O[C@H](CO)[C@@H](O)[C@H]2O)c(=O)[nH]1` [N2,N2-Dimethylguanosine], the remaining activity at 1.25 µM is 105% in test [1] (Well no.=6969) and 104% in test [1] (Well no.=7820). For the same compound, the remaining activity at 3.75 µM in test [2] (Well no.=6969) is 106%; in test [2] (Well no.=7820), 104%.

As for `CC(=O)Nc1ccn([C@@H]2O[C@H](COP(=O)(O)OP(=O)(O)OP(=O)(O)O)[C@@H](O)[C@H]2O)c(=O)n1` [N4-Acetylcytidine triphosphate (sodium)], the results for the remaining activity at 1.25 µM in test [1] (Well no.=7305) and in test [1] (Well no.=7964) were 109% and 95.2%, respectively. The remaining activity at 3.75 µM in test [2] (Well no.=7305) was 109%; in test [2] (Well no.=7964), 92.1%.

`CN(C)c1ncnc2c1ncn2[C@@H]1O[C@H](CO)[C@@H](O)[C@H]1O` [N6,N6-Dimethyladenosine]: in test [1] (Well no.=7854), the remaining activity at 1.25 µM was determined as 97.9%. For the same compound, the remaining activity at 3.75 µM in test [2] (Well no.=7854) was 102%.

On to `Nc1ccc(CCNc2ncnc3c2ncn3[C@@H]2O[C@H](CO)[C@@H](O)[C@H]2O)cc1` [N6-2-(4-Aminophenyl)ethyladenosine], for which, in test [1] (Well no.=162), the remaining activity at 1.25 µM was 94.9%. In addition, the remaining activity at 3.75 µM in test [2] (Well no.=162) turned out to be 98%.

Consider `OC[C@H]1O[C@@H](n2cnc3c(NCCc4ccccc4)ncnc32)[C@H](O)[C@@H]1O` [N6-2-Phenylethyladenosine], for which the remaining activity at 1.25 µM in test [1] (Well no.=1453) came to 98.5%. Moreover, the remaining activity at 3.75 µM in test [2] (Well no.=1453) was 98.6%.

Turning to `OC[C@H]1O[C@@H](n2cnc3c(NCCc4ccccc4)ncnc32)[C@H](O)[C@@H]1O` [N6-(2-Phenylethyl)adenosine], the remaining activity at 1.25 µM in test [1] (Well no.=8431) was 96.1%. In addition, the remaining activity at 3.75 µM in test [2] (Well no.=8431) was determined as 96.2%.

For the compound `OC[C@H]1O[C@@H](n2cnc3c(NCc4ccc(O)cc4)ncnc32)[C@H](O)[C@@H]1O` [N6-(4-Hydroxybenzyl)adenosine], the remaining activity at 1.25 µM in test [1] (Well no.=7233) was 106%; in test [1] (Well no.=7954), 101%. Further, the remaining activity at 3.75 µM in test [2] (Well no.=7233) was 101%; in test [2] (Well no.=7954), 97.1%.

`OC[C@H]1O[C@@H](n2cnc3c(NC4CCCCC4)ncnc32)[C@H](O)[C@@H]1O` [N6-Cyclohexyladenosine]: the remaining activity at 1.25 µM stood at 98.1% in test [1] (Well no.=435), 96.4% in test [1] (Well no.=7053), 92% in test [1] (Well no.=7952) and 106% in test [1] (Well no.=8083). In addition, the remaining activity at 3.75 µM in test [2] (Well no.=435) turned out to be 100%; in test [2] (Well no.=7053) it was 95.5%; in test [2] (Well no.=7952), 92.4%; in test [2] (Well no.=8083), 105%.

Consider `Cn1cnc2c(NC3CCCC3)ncnc21` [N6-Cyclopentyl-9-methyladenine], for which, in test [1] (Well no.=988), the remaining activity at 1.25 µM was 96.8%. The remaining activity at 3.75 µM in test [2] (Well no.=988) amounted to 99.1%.

For `OC[C@H]1O[C@@H](n2cnc3c(NC4CCCC4)ncnc32)[C@H](O)[C@@H]1O` [N6-Cyclopentyladenosine], the remaining activity at 1.25 µM in test [1] (Well no.=330) is 85.8%. In test [2] (Well no.=330), the remaining activity at 3.75 µM amounted to 88.2%.

Turning to `CCNc1ncnc2c1ncn2[C@@H]1O[C@H](CO)[C@@H](O)[C@H]1O` [N6-Ethyladenosine], the remaining activity at 1.25 µM turned out to be 99.5% in test [1] (Well no.=7906) and 100% in test [1] (Well no.=8517). Also, the results for the remaining activity at 3.75 µM in test [2] (Well no.=7906) and in test [2] (Well no.=8517) were 97.7% and 95.1%, respectively.

(Values after PMC8286840, “Identifying SARS-CoV-2 antiviral compounds by screening for small molecule inhibitors of Nsp3 papain-like protease” (Biochemical Journal, 2021).)
